32 compounds from patent US10328077B2 (CELGENE CORPORATION, priority 2016, dated 2019) can be followed below.

Where a name gives a salt, the structure may show the parent alone. Read-outs that look alike come from different tables or passages of the source.

One test addresses human LSD-1 (Homo sapiens (Human), UniProt O60341). As to the kind of experiment: In vitro enzyme inhibition assay LSD-1 (TR-FRET). The class given is biochemical. From the text:
This assay determines the ability of a test compound to inhibit LSD-1 demethylase activity.
The enzymatic assay of LSD-1 activity is based on Time Resolved-Fluorescence Resonance Energy Transfer (TR-FRET) detection.
(In TR-FRET formats the signal depends on donor and acceptor labels being close together.)

The test system of test [1] is CD11b expression in THP-1 (AML) cells. As to the kind of experiment: LSD-1 CD11b cellular assay (flow cytometry). Particulars: Homo sapiens, THP-1, 96 h, read-out: THP-1 IC50. (A flow cytometer gives signals particle by particle.)
Method: To analyze LSD-1 inhibitor efficacy in cells, a CD11b flow cytometry assay was performed. […] LSD-1 test compounds were serially diluted in DMSO. The dilutions were added to each well accordingly to a final concentration of 0.2% DMSO. The cells were incubated at 37 degrees Celsius in 5% CO2 for 4 days. 250 μL of each well was transferred to a well in a 96 well round bottom plate. The plate was centrifuged at 1200 rpm at 4 degrees Celsius in a Beckman Coulter Alegra 6KR centrifuge for 5 minutes. The media was removed leaving the cells at the bottom of the wells. The cells were washed in 100 μL cold HBSS (Hank's Balanced Salt Solution) plus 2% BSA (Bovine Serum Albumin) solution and centrifuged at 1200 rpm at 4 degrees Celsius for 5 minutes. The wash was removed. […] The cells were centrifuged and washed two times in 100 μl HBSS plus 2% BSA. After the final spin the cells were resuspended in 100 μL HBSS plus 2% BSA containing 1 μg/mL DAPI (4′,6-diamidino-2-phenylindole). The cells were then analyzed by flow cytometry in a BD FACSAria machine. Cells were analyzed for CD11b expression. The percent of CD11b expressing cells for each inhibitor concentration was used to determine an IC50 curve for each compound analyzed.
The mark [2] stands for this setting: TR-FRET, H3K4me1-biotin labeled peptide.

Broadly, the IC50 is the midpoint of a concentration-inhibition curve. Take `CN(C)c1ccc(-c2c(-c3ccc(C#N)c(F)c3)nc(N3CCC(N)CC3)n(C)c2=O)cn1` [Example 57, 4-[2-(4-amino-piperidin-1-yl)-5-(6-dimethylamino-pyridin-3-yl)-1-methyl-6-oxo-1,6-dihydro-pyrimidin-4-yl]-2-fluoro-benzonitrile]: the IC50 (against human LSD-1 (setting [2]); in test [1]) was less than 100 nM throughout.
Regarding `CN(C)c1ncc(-c2c(-c3ccc(C#N)c(F)c3)nc(N3CCC(N)CC3)n(C)c2=O)cn1` [Example 49, 4-[2-(4-amino-piperidin-1-yl)-2′-dimethylamino-1-methyl-6-oxo-1,6-dihydro-[5,5′]bipyrimidinyl-4-yl]-2-fluoro-benzonitrile], the IC50 (on human LSD-1 (setting [2]); in test [1]) was less than 100 nM throughout.
At human LSD-1 (setting [2]), `COc1ccc(-c2c(-c3ccc(C#N)c(F)c3)nc(N3CCCNCC3)n(C)c2=O)cn1` [Example 61, 4-[2-[1,4]diazepan-1-yl-5-(6-methoxy-pyridin-3-yl)-1-methyl-6-oxo-1,6-dihydro-pyrimidin-4-yl]-2-fluoro benzonitrile] displayed a half-maximal inhibitory concentration (IC50) of less than 100 nM.
As to `COc1ccc(-c2c(-c3ccccc3C#N)nc(N3CCC(N)CC3)n(C)c2=O)cc1F` [Example 119, 2-[2-(4-aminopiperidin-1-yl)-5-(3-fluoro-4-methoxyphenyl)-1-methyl-6-oxopyrimidin-4-yl]benzonitrile], on human LSD-1 (setting [2]), the IC50 is greater than 10000 nM.
Take `Cn1c(N2CCC(N)CC2)nc(-c2ccccc2)c(-c2ccc3c(ccn3C)c2)c1=O` [Example 114, 2-(4-amino-piperidin-1-yl)-3-methyl-5-(1-methyl-1H-indol-5-yl)-6-phenyl-3H-pyrimidin-4-one]: the IC50 against human LSD-1 (setting [2]) is greater than 10000 nM.
`COc1ccc(-c2c(-c3ccc(C#N)c(F)c3)nc(N3CCC[C@H](N)C3)n(C)c2=O)cc1F` [Example 28, 4-[2-((3S)-3-amino-piperidin-1-yl)-5-(3-fluoro-4-methoxy-phenyl)-1-methyl-6-oxo-1,6-dihydro-pyrimidin-4-yl]-2-fluoro-benzonitrile] came in with an IC50 against human LSD-1 (setting [2]) of less than 100 nM.
Same read-out and setting: under `COc1ccc(-c2c(-c3ccc(C#N)cc3)nc(N3CCCNCC3)n(C)c2=O)cn1` [Example 62] stands less than 100 nM.
`COc1ccc(-c2c(-c3ccc(C#N)c(F)c3)nc(N3CCC(N)CC3)n(CC(=O)O)c2=O)cc1` [Example 15, [2-(4-amino-piperidin-1-yl)-4-(4-cyano-3-fluoro-phenyl)-5-(4-methoxy-phenyl)-6-oxo-6H-pyrimidin-1-yl]-acetic acid] yielded an IC50 against human LSD-1 (setting [2]) of less than 100 nM.
The same measure, in the same setting: under `COc1ccc(-c2c(-c3ccc(C#N)c(F)c3)nc(N3CCNCC3)n(C)c2=O)cc1F` [Example 47, 2-fluoro-4-[5-(3-fluoro-4-methoxy-phenyl)-1-methyl-6-oxo-2-piperazin-1-yl-1,6-dihydro-pyrimidin-4-yl]-benzonitrile] stands less than 100 nM.
As to `COc1ccc(-c2c(-c3ccc(Cl)c(F)c3)nc(N3CCC(N)CC3)n(C)c2=O)cc1` [Example 111, 2-(4-amino-piperidin-1-yl)-6-(4-chloro-3-fluoro-phenyl)-5-(4-methoxy-phenyl)-3-methyl-3H-pyrimidin-4-one], the IC50 in test [1] is 100 to 1000 nM.
On to `COc1ccc(-c2c(-c3cccc(C#N)c3)nc(N3CCC(N)CC3)n(C)c2=O)cc1F` [Example 118, 3-[2-(4-aminopiperidin-1-yl)-5-(3-fluoro-4-methoxyphenyl)-1-methyl-6-oxopyrimidin-4-yl]benzonitrile], for which the IC50 against human LSD-1 (setting [2]) is greater than 10000 nM.
For the compound `Cn1c(N2CCC(N)CC2)nc(-c2ccc(C#N)c(F)c2)c(C#N)c1=O` [Example 19, 2-(4-amino-piperidin-1-yl)-4-(4-cyano-3-fluoro-phenyl)-1-methyl-6-oxo-1,6-dihydro-pyrimidine-5-carbonitrile], on human LSD-1 (setting [2]), the IC50 is less than 100 nM.
As to `Cc1ccc(-c2c(-c3ccc(C#N)cc3)nc(N3CCC(N)CC3)n(C)c2=O)cc1` [Example 1, 4-(2-(4-aminopiperidin-1-yl)-1-methyl-6-oxo-5-p-tolyl-1,6-dihydropyrimidin-4-yl)benzonitrile, HCl salt], the IC50 in test [1] is less than 100 nM.
With `COc1ncc(-c2c(-c3ccc(C#N)c(F)c3)nc(N3CCC(N)CC3)n(C)c2=O)cc1F` [Example 26, 4-[2-(4-aminopiperidyl)-5-(5-fluoro-6-methoxy(3-5,6-dihydropyridyl))-1-methyl-6-oxohydropyrimidin-4-yl]-2-fluorobenzenecarbonitrile], the IC50 at human LSD-1 (setting [2]) was less than 100 nM.
Regarding `Cn1c(N2CCC(N)CC2)nc(-c2ccc(C#N)cc2)c(-c2ccc3c(cnn3C)c2)c1=O` [Example 33, 4-[2-(4-aminopiperidyl)-1-methyl-5-(1-methyl(1H-indazol-5-yl))-6-oxohydropyrimidin-4-yl]benzenecarbonitrile], the IC50 in test [1] is less than 100 nM.
In the case of `Cn1c(N2CCC(N)CC2)nc(-c2ccc(C#N)c(F)c2)c(-c2ccc(C(F)(F)F)nc2)c1=O` [Example 23, 4-{2-(4-aminopiperidyl)-1-methyl-6-oxo-5-[6-(trifluoromethyl) (3-pyridyl)] hydropyrimidin-4-yl}-2-fluorobenzenecarbonitrile], the IC50 in test [1] is less than 100 nM.
Turning to `C#Cc1c(-c2ccc(C#N)c(F)c2)nc(N2CCC(N)CC2)n(C)c1=O` [Example 110], on human LSD-1 (setting [2]), the IC50 is less than 100 nM.
As to `Cn1c(N2CCC(N)CC2)nc(-c2ccc(C#N)c(F)c2)c(-c2ccc(F)cc2)c1=O` [Example 101, 4-[2-(4-aminopiperidin-1-yl)-5-(4-fluorophenyl)-1-methyl-6-oxopyrimidin-4-yl]-2-fluorobenzonitrile], on human LSD-1 (setting [2]), the IC50 is less than 100 nM.
The same measure, in the same setting: under `CNC1CCN(c2nc(-c3ccc(C#N)c(F)c3)c(-c3ccc(C)nc3)c(=O)n2C)CC1` [Example 21, 2-fluoro-4-[1-methyl-2-(4-methylamino-piperidin-1-yl)-5-(6-methyl-pyridin-3-yl)-6-oxo-1,6-dihydro-pyrimidin-4-yl]-benzonitrile] stands less than 100 nM.
Take `COc1ccc(-c2c(-c3ccc(C#N)cc3)nc(N3CCC(N)CC3)n(C)c2=O)cc1` [Example 2, 4-[2-(4-amino-piperidin-1-yl)-5-(4-methoxy-phenyl)-1-methyl-6-oxo-1,6-dihydro-pyrimidin-4-yl]-benzonitrile]: the IC50 in test [1] is less than 100 nM.
`COc1ccc(-c2c(-c3ccc(C#N)cc3)nc(NC[C@H]3CCNC3)n(C)c2=O)cc1F` [Example 44, 4-{5-(3-fluoro-4-methoxy-phenyl)-1-methyl-6-oxo-2-[(3S)-(pyrrolidin-3-ylmethyl)-amino]-1,6-dihydro-pyrimidin-4-yl}-benzonitrile] gave an IC50 against human LSD-1 (setting [2]) of less than 100 nM.
On the same count and under the same terms, under `CNC(=O)c1ccc(-c2c(-c3ccc(C#N)cc3)nc(N3CCC(N)CC3)n(C)c2=O)cc1F` [Example 40, {4-[2-(4-aminopiperidyl)-6-(4-cyanophenyl)-3-methyl-4-oxo-(3-hydropyrimidin-5-yl)]-2-fluorophenyl}-N-methylcarboxamide] stands less than 100 nM; under `COc1ccc(-c2c(-c3ccc(C#N)c(F)c3)nc(NC3CCNCC3)n(C)c2=O)cc1` [Example 53, 2-fluoro-4-[5-(4-methoxy-phenyl)-1-methyl-6-oxo-2-(piperidin-4-ylamino)-1,6-dihydro-pyrimidin-4-yl]-benzonitrile], less than 100 nM.
As to `Cn1c(N2CCC(N)CC2)nc(-c2ccc(C#N)c(F)c2)c(-c2ccc3cc[nH]c3c2)c1=O` [Example 75, 4-[2-(4-amino-piperidin-1-yl)-5-(1H-indol-6-yl)-1-methyl-6-oxo-1,6-dihydro-pyrimidin-4-yl]-2-fluoro-benzonitrile], the IC50 in test [1] is less than 100 nM.
In turn, `Cn1c(N2CCC(N)CC2)nc(-c2ccc(C#N)c(F)c2)c(C#N)c1=O` [Example 121, 2-(4-amino-piperidin-1-yl)-4-(4-cyano-3-fluoro-phenyl)-1-methyl-6-oxo-1,6-dihydro-pyrimidine-5-carbonitrile] showed an IC50 against human LSD-1 (setting [2]) of 100 to 1000 nM.
In the case of `COc1ccc(-c2c(-c3ccc(C#N)c(F)c3)nc(N(C)C3CCNCC3)n(C)c2=O)cc1` [Example 55, 2-fluoro-4-[5-(4-methoxy-phenyl)-1-methyl-2-(methyl-piperidin-4-yl-amino)-6-oxo-1,6-dihydro-pyrimidin-4-yl]-benzonitrile], on human LSD-1, the half-inhibitory concentration (IC50) is less than 100 nM.
On to `Cn1c(N2CCC(N)CC2)nc(-c2ccc(C#N)c(F)c2)c(-c2ccc3c(ccn3C)c2)c1=O` [Example 74, 4-[2-(4-amino-piperidin-1-yl)-1-methyl-5-(1-methyl-1H-indol-5-yl)-6-oxo-1,6-dihydro-pyrimidin-4-yl]-2-fluoro-benzonitrile], for which the IC50 in test [1] is less than 100 nM.
On human LSD-1 (setting [2]), `Cn1c(N2CCC(N)CC2)nc(-c2ccc(C#N)c(F)c2)cc1=O` [Example 108, 4-[2-(4-aminopiperidin-1-yl)-1-methyl-6-oxopyrimidin-4-yl]-2-fluorobenzonitrile] showed an IC50 of less than 100 nM.
On the same count and under the same terms, under `Cc1ccc(-c2c(-c3ccc(C#N)c(F)c3)nc(N3CCC(N(C)C)CC3)n(C)c2=O)cn1` [Example 82, 4-[2-(4-dimethylamino-piperidin-1-yl)-1-methyl-5-(6-methyl-pyridin-3-yl)-6-oxo-1,6-dihydro-pyrimidin-4-yl]-2-fluoro-benzonitrile] stands less than 100 nM.
Same read-out and setting: in the case of `CN(C)c1ncc(-c2c(-c3ccc(C#N)c(F)c3)nc(N3CCC(N(C)C)CC3)n(C)c2=O)cn1` [Example 81, 4-[2′-dimethylamino-2-(4-dimethylamino-piperidin-1-yl)-1-methyl-6-oxo-1,6-dihydro-[5,5′]bipyrimidinyl-4-yl]-2-fluoro-benzonitrile] it was less than 100 nM.
Consider `COc1ccc(-c2c(-c3ccc(C#N)c(F)c3)nc(N3CC(CN)C3)n(C)c2=O)cc1` [Example 69, 4-[2-(3-aminomethyl-azetidin-1-yl)-5-(4-methoxy-phenyl)-1-methyl-6-oxo-1,6-dihydro-pyrimidin-4-yl]-2-fluoro-benzonitrile], for which the IC50 on human LSD-1 (setting [2]) was less than 100 nM.
Still for that read-out and setting: in the case of `COc1ccc(-c2c(-c3ccc(C#N)cc3)nc(NC[C@@H]3CCNC3)n(C)c2=O)cc1F` [Example 45, 4-{5-(3-fluoro-4-methoxy-phenyl)-1-methyl-6-oxo-2-[(3R)-(pyrrolidin-3-ylmethyl)-amino]-1,6-dihydro-pyrimidin-4-yl}-benzonitrile] it was less than 100 nM.
